According to ChEMBL document CHEMBL1138861, “Design, synthesis, and biological evaluation of phenylamino-substituted 6,11-dihydro-dibenzo[b,e]oxepin-11-ones and dibenzo[a,d]cycloheptan-5-ones: novel p38 MAP kinase inhibitors” (J Med Chem, 2006):

Columns and labels:
[1] = target: Mitogen-activated protein kinase 14 (Homo sapiens, UniProt Q16539)
CYP2C19 = CYP2C19 (Homo sapiens, UniProt P33261); experiment: Inhibition of CYP2C19 at 10 uM; format: ADME
CYP2D6 = CYP2D6 (Homo sapiens, UniProt P10635); experiment: Inhibition of CYP2D6 at 10 uM; format: ADME
Sequence of CYP2D6 (P10635 whole entry): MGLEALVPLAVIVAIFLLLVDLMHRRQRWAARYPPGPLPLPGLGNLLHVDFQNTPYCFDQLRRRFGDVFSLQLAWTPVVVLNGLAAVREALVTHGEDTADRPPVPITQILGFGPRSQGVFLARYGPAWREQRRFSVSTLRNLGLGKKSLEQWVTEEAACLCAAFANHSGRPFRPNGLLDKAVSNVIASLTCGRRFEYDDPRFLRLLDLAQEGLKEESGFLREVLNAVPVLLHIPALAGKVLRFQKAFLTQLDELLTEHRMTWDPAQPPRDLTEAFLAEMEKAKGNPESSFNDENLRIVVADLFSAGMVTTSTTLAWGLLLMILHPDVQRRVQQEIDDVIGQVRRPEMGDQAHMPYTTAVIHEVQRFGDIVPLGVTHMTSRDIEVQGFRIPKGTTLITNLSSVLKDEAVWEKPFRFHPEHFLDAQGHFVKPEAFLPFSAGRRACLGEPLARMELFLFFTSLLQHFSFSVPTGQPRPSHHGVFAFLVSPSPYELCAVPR

CYP3A4 = CYP3A4 (Homo sapiens, UniProt P08684); experiment: Inhibition of CYP3A4 at 10 uM; format: ADME
Sequence of CYP3A4 (P08684 whole entry): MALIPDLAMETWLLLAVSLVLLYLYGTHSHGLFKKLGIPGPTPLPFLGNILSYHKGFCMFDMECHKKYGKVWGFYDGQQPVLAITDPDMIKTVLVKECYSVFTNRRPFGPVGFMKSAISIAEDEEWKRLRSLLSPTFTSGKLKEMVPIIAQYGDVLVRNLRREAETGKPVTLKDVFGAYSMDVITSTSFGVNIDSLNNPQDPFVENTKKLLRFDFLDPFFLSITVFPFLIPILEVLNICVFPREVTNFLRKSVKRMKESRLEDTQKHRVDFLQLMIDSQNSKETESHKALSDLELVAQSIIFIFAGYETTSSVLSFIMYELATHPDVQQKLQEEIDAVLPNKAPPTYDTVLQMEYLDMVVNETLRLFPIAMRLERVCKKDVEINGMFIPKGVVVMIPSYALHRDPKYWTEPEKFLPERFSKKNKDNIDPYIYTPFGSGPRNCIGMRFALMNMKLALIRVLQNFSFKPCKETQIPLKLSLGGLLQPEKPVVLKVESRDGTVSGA

Sequence of Mitogen-activated protein kinase 14 (Q16539 whole entry): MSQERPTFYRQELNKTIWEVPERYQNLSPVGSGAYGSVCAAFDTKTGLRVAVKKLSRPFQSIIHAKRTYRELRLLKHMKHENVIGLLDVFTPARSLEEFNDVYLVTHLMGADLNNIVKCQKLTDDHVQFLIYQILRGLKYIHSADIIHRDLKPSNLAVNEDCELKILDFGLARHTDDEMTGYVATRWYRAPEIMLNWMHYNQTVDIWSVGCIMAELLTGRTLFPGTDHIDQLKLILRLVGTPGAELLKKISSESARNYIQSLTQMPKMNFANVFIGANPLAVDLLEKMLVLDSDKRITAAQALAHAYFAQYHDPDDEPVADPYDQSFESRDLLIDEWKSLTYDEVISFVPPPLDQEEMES
Sequence of CYP2C19 (P33261 whole entry): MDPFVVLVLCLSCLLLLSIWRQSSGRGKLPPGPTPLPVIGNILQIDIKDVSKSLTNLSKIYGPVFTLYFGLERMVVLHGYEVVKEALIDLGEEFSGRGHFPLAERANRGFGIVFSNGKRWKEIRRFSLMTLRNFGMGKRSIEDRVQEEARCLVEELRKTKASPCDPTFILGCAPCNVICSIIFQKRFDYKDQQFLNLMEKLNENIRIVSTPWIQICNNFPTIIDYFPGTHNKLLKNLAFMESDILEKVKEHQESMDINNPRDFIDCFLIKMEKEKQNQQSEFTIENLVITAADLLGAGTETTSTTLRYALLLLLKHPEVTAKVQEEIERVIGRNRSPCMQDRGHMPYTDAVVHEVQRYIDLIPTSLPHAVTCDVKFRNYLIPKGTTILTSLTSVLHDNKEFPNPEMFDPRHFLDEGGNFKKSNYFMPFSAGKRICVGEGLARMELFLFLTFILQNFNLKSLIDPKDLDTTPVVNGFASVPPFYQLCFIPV

Compound | IC50 [1] [µM] | further results
Nc1cc(F)ccc1Nc1ccc2c(c1)OCc1ccccc1C2=O | 0.038 | –
Nc1ccccc1Nc1ccc2c(c1)CCc1ccccc1C2=O | – | inhibition at 10 µM (CYP2C19): 53%; inhibition at 10 µM (CYP2D6): 42%; inhibition at 10 µM (CYP3A4): 70%
Nc1ccccc1Nc1ccc2c(c1)COc1ccccc1C2=O | 3.06 | –
Nc1ccc(Nc2ccc3c(c2)CCc2ccccc2C3=O)cc1 | 1.17 | –
Nc1ccccc1Nc1ccc2c(=O)c3ccccc3ccc2c1 | 1.06 | –
Nc1ccccc1Nc1ccc2c(c1)SCc1ccccc1C2=O | 0.196 | –
O=C1c2ccccc2COc2cc(Nc3ccc(Br)cc3Br)ccc21 | > 5 | –
O=C1c2ccccc2COc2cc(Nc3ccc(F)cc3F)ccc21 | 0.239 | –
C[S+]([O-])c1ccc(-c2nc(-c3ccncc3)c(-c3ccc(F)cc3)[nH]2)cc1 (centres undefined) [SB-203580] | – | inhibition at 10 µM (CYP2C19): 92%; inhibition at 10 µM (CYP2D6): 73%; inhibition at 10 µM (CYP3A4): 77%

More lines, main results first:

IC50 [1] [µM] | Compound | further results
0.19 | Cc1ccccc1C(=O)c1ccc(Nc2ccccc2)cc1Cl | –
1.32 | Nc1ccc(Nc2ccc3c(c2)OCc2ccccc2C3=O)c(F)c1 | –
> 5 | Nc1ccc(Nc2ccc3c(c2)OCc2ccccc2C3=O)c(N)c1 | –
> 5 | Nc1ccc(Nc2ccc3c(c2)OCc2ccccc2C3=O)cc1 | –
1.22 | Nc1cccc(Nc2ccc3c(c2)OCc2ccccc2C3=O)c1 | –
3.02 | O=C1c2ccccc2COc2cc(Nc3ccc(Cl)cc3Cl)ccc21 | –
